Assays:
Type in all cases: cell-based
human opioid δ receptor = target: T1, human opioid δ receptor (Homo sapiens, UniProt P41143); experiment: Opioid receptor function test (agonist activity, Lance Ultra cAMP kit), δ receptor; details: for Emax: maximum reaction relative to control drug SNC 80 taken as 100%
T1 construct: host or cells: CHO cells
From the text: (§1) Opioid Receptor Function Test
(§2) Functional activity of the compound provided by the present invention on μ, δ, and κ opioid receptors was examined.
(§3) Method: Using a Lance Ultra cAMP kit (Perkin Elmer), the functional activity was examined by a predetermined method. In evaluation of agonist activity, CHO cells expressing each of human opioid receptors (δ, μ, and κ: accession numbers and catalog numbers are described below) were reacted with a test compound in an assay buffer (1× HBSS, […], pH 7.4, […] isobutylmethylxanthine (IBMX), 7.5% BSA) in the presence of 10 μM forskolin for 30 minutes. Subsequently, a cAMP detection reagent in the kit was added. One hour later, time-resolved fluorescence measurement was performed using an EnVision plate reader (Perkin Elmer). The test compound and each control drug (δ: SNC 80, μ: DAMGO, κ: U-69593) were evaluated in a concentration range of 10^−12 to 10^−5 M. A dose reaction curve of the test compound was determined from a fluorescence value at 665 nm, and an EC50 value and an Emax value were calculated. The Emax value was determined as a ratio of a maximum reaction of the test compound when a maximum reaction of each control drug was taken as 100%.

human opioid μ receptor = target: T2, human opioid μ receptor (Homo sapiens, UniProt P35372); experiment: Opioid receptor function test (agonist activity, Lance Ultra cAMP kit), μ receptor; details: for Emax: maximum reaction relative to control drug DAMGO taken as 100%
T2 construct: host or cells: CHO cells
T2 sequence (P35372 whole entry): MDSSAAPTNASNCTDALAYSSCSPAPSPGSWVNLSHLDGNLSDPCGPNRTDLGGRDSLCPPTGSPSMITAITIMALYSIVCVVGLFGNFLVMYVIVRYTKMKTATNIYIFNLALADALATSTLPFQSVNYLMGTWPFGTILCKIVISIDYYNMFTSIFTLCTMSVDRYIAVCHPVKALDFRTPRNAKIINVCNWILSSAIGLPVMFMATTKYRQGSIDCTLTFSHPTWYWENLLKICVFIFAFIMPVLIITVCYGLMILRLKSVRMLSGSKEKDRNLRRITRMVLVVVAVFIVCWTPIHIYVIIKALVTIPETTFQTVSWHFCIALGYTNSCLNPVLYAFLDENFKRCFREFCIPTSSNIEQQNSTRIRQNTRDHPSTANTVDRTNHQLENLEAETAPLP
From the text: as §1, §2, §3

human opioid κ receptor = target: T3, human opioid κ receptor (Homo sapiens, UniProt P41145); experiment: Opioid receptor function test (agonist activity, Lance Ultra cAMP kit), κ receptor; details: for Emax: maximum reaction relative to control drug U-69593 taken as 100%
T3 construct: host or cells: CHO cells
T3 sequence (P41145 whole entry): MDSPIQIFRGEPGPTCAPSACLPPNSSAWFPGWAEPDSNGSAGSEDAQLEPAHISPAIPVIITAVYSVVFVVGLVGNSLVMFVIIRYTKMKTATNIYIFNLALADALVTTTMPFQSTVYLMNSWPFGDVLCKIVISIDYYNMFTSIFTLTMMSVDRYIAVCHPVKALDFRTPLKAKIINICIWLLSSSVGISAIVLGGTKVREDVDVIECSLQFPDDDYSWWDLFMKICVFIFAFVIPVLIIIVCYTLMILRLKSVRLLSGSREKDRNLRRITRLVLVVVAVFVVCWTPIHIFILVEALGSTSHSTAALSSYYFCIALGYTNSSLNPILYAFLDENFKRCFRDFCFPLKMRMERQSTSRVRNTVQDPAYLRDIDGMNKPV
From the text: as §1, §2, §3

T1 sequence (P41143 whole entry): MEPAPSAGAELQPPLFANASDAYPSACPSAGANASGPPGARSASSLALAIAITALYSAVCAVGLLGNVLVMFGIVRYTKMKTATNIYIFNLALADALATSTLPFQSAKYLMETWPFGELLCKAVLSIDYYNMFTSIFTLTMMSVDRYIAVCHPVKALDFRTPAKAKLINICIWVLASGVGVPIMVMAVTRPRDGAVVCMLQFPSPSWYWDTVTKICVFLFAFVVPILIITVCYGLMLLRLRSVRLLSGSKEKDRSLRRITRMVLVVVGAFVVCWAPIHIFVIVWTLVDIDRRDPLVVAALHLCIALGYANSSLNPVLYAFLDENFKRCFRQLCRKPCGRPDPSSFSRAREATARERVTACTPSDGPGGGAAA

Cc1[nH]nc2c1C[C@@]1(O)[C@H]3Cc4ccc(O)cc4[C@@]1(CCN3CC1CC1)C2 [34, 35]
EC50 (human opioid δ receptor): 1.3 nM
Emax (human opioid δ receptor): 42%

Cc1c2c(nn1-c1ccccc1)C[C@]13CCN(CC4CC4)[C@H](Cc4ccc(O)cc41)[C@]3(O)C2 [Compound 20, (6R,6aS,11aR)-14-(cyclopropylmethyl)-8-methyl-9-phenyl-5,6,9,11-tetrahydro-6,11a-(epiminoethano)naphtho[2,1-f]indazole-2,6a(7H)-diol]
EC50 (human opioid δ receptor): 0.89 nM
Emax (human opioid δ receptor): 86%
EC50 (human opioid μ receptor): 8.1 nM
Emax (human opioid μ receptor): 10%
EC50 (human opioid κ receptor): 8.7 nM
Emax (human opioid κ receptor): 12%

Cc1nn(-c2ccccc2)c2c1C[C@@]1(O)[C@H]3Cc4ccc(O)cc4[C@@]1(CCN3CC1CC1)C2 [Compound 21, (6R,6aS,11aR)-14-(cyclopropylmethyl) methyl-10-phenyl-5,6,10,11-tetrahydro-6,11a-(epiminoethano)naphtho[2,1-f]indazole-2,6a(7H)-diol]
EC50 (human opioid δ receptor): 0.76 nM
Emax (human opioid δ receptor): 81%

Cc1nn(-c2ccccn2)c2c1C[C@@]1(O)[C@H]3Cc4ccc(O)cc4[C@@]1(CCN3CC1CC1)C2 [Compound 27, (6R,6aS,11aR)-14-(cyclopropylmethyl)-8-methyl-10-(pyridin-2-yl)-5,6,10,11-tetrahydro-6,11a-(epiminoethano)naphtho[2,1-f]indazole-2,6a(7H)-diol]
EC50 (human opioid δ receptor): 0.83 nM
Emax (human opioid δ receptor): 51%

Cc1nn(-c2ccncc2)c2c1C[C@@]1(O)[C@H]3Cc4ccc(O)cc4[C@@]1(CCN3CC1CC1)C2 [Compound 28, (6R,6aS,11aR)-14-(cyclopropylmethyl)-8-methyl-10-(pyridin-4-yl)-5,6,10,11-tetrahydro-6,11a-(epiminoethano)naphtho[2,1-f]indazole-2,6a(7H)-diol]
EC50 (human opioid δ receptor): 0.33 nM
Emax (human opioid δ receptor): 101%
EC50 (human opioid κ receptor): 58 nM
Emax (human opioid κ receptor): 15%

Cc1nn(C2CCCCC2)c2c1C[C@@]1(O)[C@H]3Cc4ccc(O)cc4[C@@]1(CCN3CC1CC1)C2 [Compound 32, (6R,6aS,11aR)-10-cyclohexyl-14-(cyclopropylmethyl)-8-methyl-5,6,10,11-tetrahydro-6,11a-(epiminoethano)naphtho[2,1-f]indazole-2,6a(7H)-diol]
EC50 (human opioid δ receptor): 0.089 nM
Emax (human opioid δ receptor): 111%

Cc1c2c(nn1C1CCCCC1)C[C@]13CCN(CC4CC4)[C@H](Cc4ccc(O)cc41)[C@]3(O)C2 [Compound 33, (6R,6aS,11aR)-9-cyclohexyl-14-(cyclopropylmethyl)-8-methyl-5,6,9,11-tetrahydro-6,11a-(epiminoethano)naphtho[2,1-f]indazole-2,6a(7H)-diol]
EC50 (human opioid δ receptor): 0.14 nM
Emax (human opioid δ receptor): 108%
EC50 (human opioid κ receptor): 44 nM
Emax (human opioid κ receptor): 13%

Cc1nn(C(=O)c2ccccc2)c2c1C[C@@]1(O)[C@H]3Cc4ccc(O)cc4[C@@]1(CCN3CC1CC1)C2 [Compound 36, ((6R,6aS,11aR)-14-(cyclopropylmethyl)-2,6a-dihydroxy-8-methyl-6,6a,7,11-tetrahydro-6,11a-(epiminoethano)naphtho[2,1-f]indazol-10(5H)-yl)(phenyl)methanone]
EC50 (human opioid δ receptor): 3.4 nM
Emax (human opioid δ receptor): 65%

Cc1c2c(nn1CC1CCCCC1)C[C@]13CCN(CC4CC4)[C@H](Cc4ccc(O)cc41)[C@]3(O)C2 [Compound 42, (6R,6aS,11aR)-9-(cyclohexylmethyl)-14-(cyclopropylmethyl)-8-methyl-5,6,9,11-tetrahydro-6,11a-(epiminoethano)naphtho[2,1-f]indazole-2,6a(7H)-diol]
EC50 (human opioid δ receptor): 1 nM
Emax (human opioid δ receptor): 90%

Cc1nn(CC2CC2)c2c1C[C@@]1(O)[C@H]3Cc4ccc(O)cc4[C@@]1(CCN3CC1CC1)C2 [Compound 45, (6R,6aS,11aR)-10,14-bis(cyclopropylmethyl)-8-methyl-5,6,10,11-tetrahydro-6,11a-(epiminoethano)naphtho[2,1-f]indazole-2,6a(7H)-diol]
EC50 (human opioid δ receptor): 0.75 nM
Emax (human opioid δ receptor): 72%

Cc1c2c(nn1CC1CC1)C[C@]13CCN(CC4CC4)[C@H](Cc4ccc(O)cc41)[C@]3(O)C2 [Compound 46, (6R,6aS,11aR)-9,14-bis(cyclopropylmethyl)-8-methyl-5,6,9,11-tetrahydro-6,11a-(epiminoethano)naphtho[2,1-f]indazole-2,6a(7H)-diol]
EC50 (human opioid δ receptor): 0.17 nM
Emax (human opioid δ receptor): 105%

Cc1nn(-c2cccnc2)c2c1C[C@@]1(O)[C@H]3Cc4ccc(O)cc4[C@@]1(CCN3CC1CC1)C2 [Compound 49, (6R,6aS,11aR)-14-(cyclopropylmethyl)-8-methyl-10-(pyridin-3-yl)-5,6,10,11-tetrahydro-6,11a-(epiminoethano)naphtho[2,1-f]indazole-2,6a(7H)-diol]
EC50 (human opioid δ receptor): 0.5 nM
Emax (human opioid δ receptor): 73%

Cc1nn(-c2nccs2)c2c1C[C@@]1(O)[C@H]3Cc4ccc(O)cc4[C@@]1(CCN3CC1CC1)C2 [Compound 51, (6R,6aS,11aR)-14-(cyclopropylmethyl)-8-methyl-10-(thiazol-2-yl)-5,6,10,11-tetrahydro-6,11a-(epiminoethano)naphtho[2,1-f]indazole-2,6a(7H)-diol]
EC50 (human opioid δ receptor): 0.94 nM
Emax (human opioid δ receptor): 54%

Cc1nn(-c2ccccc2)c2c1C[C@@]1(O)[C@H]3Cc4ccc(O)cc4[C@@]1(CCN3C)C2 [Compound 61, (6R,6aS,11aR)-8,14-dimethyl-10-phenyl-5,6,10,11-tetrahydro-6,11a-(epiminoethano)naphtho[2,1-f]indazole-2,6a(7H)-diol]
EC50 (human opioid δ receptor): 15 nM
Emax (human opioid δ receptor): 91%
EC50 (human opioid μ receptor): 257 nM
Emax (human opioid μ receptor): 63%
EC50 (human opioid κ receptor): 1030 nM
Emax (human opioid κ receptor): 14%

O=c1c2c([nH]n1-c1ccccc1)C[C@]13CCN(CC4CC4)[C@H](Cc4ccc(O)cc41)[C@]3(O)C2 [Compound 68, (6R,6aS,11aR)-14-(cyclopropylmethyl)-2,6a-dihydroxy-9-phenyl-6,6a,7,9,10,11-hexahydro-6,11a-(epiminoethano)naphtho[2,1-f]indazol-8(5H)-one]
EC50 (human opioid δ receptor): 1.4 nM
Emax (human opioid δ receptor): 100%

Cc1nn(C2CC2)c2c1C[C@@]1(O)[C@H]3Cc4ccc(O)cc4[C@@]1(CCN3CC1CC1)C2 [Compound 82, (6R,6aS,11aR)-10-cyclopropyl-14-(cyclopropylmethyl)-8-methyl-5,6,10,11-tetrahydro-6,11a-(epiminoethano)naphtho[2,1-f]indazole-2,6a(7H)-diol]
EC50 (human opioid δ receptor): 0.93 nM
Emax (human opioid δ receptor): 39%

Cc1c2c(nn1C1CC1)C[C@]13CCN(CC4CC4)[C@H](Cc4ccc(O)cc41)[C@]3(O)C2 [Compound 83, (6R,6aS,11aR)-9-cyclopropyl-14-(cyclopropylmethyl)-8-methyl-5,6,9,11-tetrahydro-6,11a-(epiminoethano)naphtho[2,1-f]indazole-2,6a(7H)-diol]
EC50 (human opioid δ receptor): 0.13 nM
Emax (human opioid δ receptor): 99%
EC50 (human opioid μ receptor): 11 nM
Emax (human opioid μ receptor): 16%
EC50 (human opioid κ receptor): 50 nM
Emax (human opioid κ receptor): 30%

Cc1nn(C2CCC2)c2c1C[C@@]1(O)[C@H]3Cc4ccc(O)cc4[C@@]1(CCN3CC1CC1)C2 [Compound 84, (6R,6aS,11aR)-10-cyclobutyl-14-(cyclopropylmethyl)-8-methyl-5,6,10,11-tetrahydro-6,11a-(epiminoethano)naphtho[2,1-f]indazole-2,6a(7H)-diol]
EC50 (human opioid δ receptor): 0.34 nM
Emax (human opioid δ receptor): 95%

Cc1c2c(nn1C1CCC1)C[C@]13CCN(CC4CC4)[C@H](Cc4ccc(O)cc41)[C@]3(O)C2 [Compound 85, (6R,6aS,11aR)-9-cyclobutyl-14-(cyclopropylmethyl) methyl-5,6,9,11-tetrahydro-6,11a-(epiminoethano)naphtho[2,1-f]indazole-2,6a(7H)-diol]
EC50 (human opioid δ receptor): 0.092 nM
Emax (human opioid δ receptor): 104%
EC50 (human opioid μ receptor): 16 nM
Emax (human opioid μ receptor): 26%
EC50 (human opioid κ receptor): 17 nM
Emax (human opioid κ receptor): 25%

Cc1nn(C2CCCC2)c2c1C[C@@]1(O)[C@H]3Cc4ccc(O)cc4[C@@]1(CCN3CC1CC1)C2 [Compound 86, (6R,6aS,11aR)-10-cyclopentyl-14-(cyclopropylmethyl)-8-methyl-5,6,10,11-tetrahydro-6,11a-(epiminoethano)naphtho[2,1-f]indazole-2,6a(7H)-diol]
EC50 (human opioid δ receptor): 0.12 nM
Emax (human opioid δ receptor): 101%

Cc1nn(C2CCOCC2)c2c1C[C@@]1(O)[C@H]3Cc4ccc(O)cc4[C@@]1(CCN3CC1CC1)C2 [Compound 88, (6R,6aS,11aR)-14-(cyclopropylmethyl)-8-methyl-10-(tetrahydro-2H-pyran-4-yl)-5,6,10,11-tetrahydro-6,11a-(epiminoethano)naphtho[2,1-f]indazole-2,6a(7H)-diol]
EC50 (human opioid δ receptor): 0.086 nM
Emax (human opioid δ receptor): 113%

Cc1nn(C2CCSCC2)c2c1C[C@@]1(O)[C@H]3Cc4ccc(O)cc4[C@@]1(CCN3CC1CC1)C2 [Compound 89, (6R,6aS,11aR)-14-(cyclopropylmethyl)-8-methyl-10-(tetrahydro-2H-thiopyran-4-yl)-5,6,10,11-tetrahydro-6,11a-(epiminoethano)naphtho[2,1-f]indazole-2,6a(7H)-diol]
EC50 (human opioid δ receptor): 0.069 nM
Emax (human opioid δ receptor): 112%

Cc1c2c(nn1C1CCSCC1)C[C@]13CCN(CC4CC4)[C@H](Cc4ccc(O)cc41)[C@]3(O)C2 [Compound 90, (6R,6aS,11aR)-14-(cyclopropylmethyl)-8-methyl-9-(tetrahydro-2H-thiopyran-4-yl)-5,6,9,11-tetrahydro-6,11a-(epiminoethano)naphtho[2,1-f]indazole-2,6a(7H)-diol]
EC50 (human opioid δ receptor): 0.092 nM
Emax (human opioid δ receptor): 116%
EC50 (human opioid κ receptor): 8.1 nM
Emax (human opioid κ receptor): 15%
